For 24 compounds, EC50 results are on record in US20110311485A1, “1,2,4-OXADIAZOLE DERIVATIVES AND THEIR THERAPEUTIC USE” (ALMIRALL S.A., priority 2008, published 2011).

The test has as its target S1P1 receptors (Homo sapiens, UniProt P21453). The test is described as follows: 35S-GTPyS binding assay. The conditions noted are these: 35S-GTPyS binding on membranes; compound 0.1 nM-10 μM; 10 μM S1P as 100% maximum efficacy; 90 min at room temperature. Format: biochemical. As for the experimental part: The effect of the compounds was measured using a 35S-GTPyS binding assay. Briefly, membranes were incubated in a buffer containing 20 mM HEPES pH 7.4, 100 mM NaCl, 10 mM MgCl2, 10 μM GDP, 50 μg/ml saponin and 0.2% fatty acid-free BSA at various concentrations (0.1 nM-10 μM) and 0.1 nM 35S-GTPyS. 10 μM S1P was used as 100% maximum efficacy. The assay was incubated for 90 min at room temperature with gentle mixing, and terminated by filtrating the reaction mixture through GF/C filter plates using the Manifold Filtration System. The filters were immediately washed with sodium phosphate pH 7.4 buffers. After drying the filter plates scintillant liquid were added to each well and 35S-GTPyS binding was measured on a Trilux Scintillation Counter.

Chain of S1P1 receptors (P21453 whole entry): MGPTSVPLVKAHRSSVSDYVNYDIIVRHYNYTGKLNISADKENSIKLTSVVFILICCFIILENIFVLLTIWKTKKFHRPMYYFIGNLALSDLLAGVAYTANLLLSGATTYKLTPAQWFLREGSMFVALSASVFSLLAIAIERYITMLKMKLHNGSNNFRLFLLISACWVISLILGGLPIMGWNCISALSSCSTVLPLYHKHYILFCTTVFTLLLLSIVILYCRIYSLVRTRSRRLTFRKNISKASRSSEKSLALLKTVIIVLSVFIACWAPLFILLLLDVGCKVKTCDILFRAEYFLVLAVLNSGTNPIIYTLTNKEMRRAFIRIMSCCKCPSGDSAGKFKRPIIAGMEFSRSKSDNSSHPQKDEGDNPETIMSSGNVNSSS

In general, EC50 refers to the concentration that produces a half-maximal response. High values mean a less potent agent, low ones a more potent agent. `Cc1cc(-c2noc(-c3noc4c3CCC(C)(C)C4)n2)cc(C)c1CCNCC(=O)O` [Example 74] registered a concentration giving a half-maximal response (EC50) of 1.7 nM.
For `CCn1nc(-c2nc(-c3cc(C)c(CC(N)=O)c(C)c3)no2)c2c1CC(C)(C)CC2` [Example 137, 2-{4-[5-(1-ethyl-6,6-dimethyl-4,5,6,7-tetrahydro-1H-indazol-3-yl)-1,2,4-oxadiazol-3-yl]-2,6-dimethylphenyl}acetamide], the EC50 stood at 3.6 nM.
For the compound `Cn1nc(-c2nnc(-c3ccc(CCN4CC(C(=O)O)C4)c(C(F)(F)F)c3)s2)c2c1CC(C)(C)CC2` [Example 198, 1-(2-(trifluoromethyl)-4-(5-(1,6,6-trimethyl-4,5,6,7-tetrahydro-1H-indazol-3-yl)-1,3,4-thiadiazol-2-yl)phenethyl)azetidine-3-carboxylic Acid], the EC50 is 12 nM.
On to `Cc1cc(-c2noc(-c3nn(C)c4c3CCC(C)(C)C4)n2)cc(C)c1CCN1CCC(CC(=O)O)CC1` [Example 143, [1-(2-{2,6-dimethyl-4-[5-(1,6,6-trimethyl-4,5,6,7-tetrahydro-1H-indazol-3-yl)-1,2,4-oxadiazol-3-yl]phenyl}ethyl)piperidin-4-yl]acetic acid], for which the EC50 is 5.1 nM.
Consider `CCc1cc(-c2noc(-c3nn(CC)c4c3CCC(C)(C)C4)n2)c(C)nc1CCN` [Example 138, (2-{3-ethyl-5-[5-(1-ethyl-6,6-dimethyl-4,5,6,7-tetrahydro-1H-indazol-3-yl)-1,2,4-oxadiazol-3-yl]-6-methylpyridin-2-yl}ethyl)amine], for which the response was half-maximal at 13 nM (EC50). Against the preceding compound, the EC50 is about 2.5-fold higher.
Compound `CCc1cc(-c2noc(-c3nn(CC(F)(F)F)c4c3CCC(C)(C)C4)n2)c(C)nc1O` [Example 56, 5-(5-(6,6-Dimethyl-1-(2,2,2-trifluoroethyl)-4,5,6,7-tetrahydro-1H-indazol-3-yl)-1,2,4-oxadiazol-3-yl)-3-ethyl-6-methylpyridin-2-ol] registered an EC50 of 31 nM.
As for `Cc1cc(-c2noc(-c3nn(C)c4c3CCC(C)(C)C4)n2)cc(C)c1CCNC(C)(C)C` [Example 104, N-(2-{2,6-dimethyl-4-[5-(1,6,6-trimethyl-4,5,6,7-tetrahydro-1H-indazol-3-yl)-1,2,4-oxadiazol-3-yl]phenyl}ethyl)-2-methylpropan-2-amine], the 50% effective concentration (EC50) amounted to 8.5 nM.
For the compound `Cc1cc(-c2noc(-c3nn(C)c4c3CCC(C)(C)C4)n2)cc(C)c1CCN1CC(C(=O)O)C1` [Example 91, 1-(2,6-Dimethyl-4-(5-(1,6,6-trimethyl-4,5,6,7-tetrahydro-1H-indazol-3-yl)-1,2,4-oxadiazol-3-yl)phenethyl)azetidine-3-carboxylic Acid], the EC50 was found to be 16 nM.
As for `CC1(C)CCc2c(-c3nc(-c4ccc(C(N)=O)cc4)no3)nn(Cc3ccccc3)c2C1` [Example 21, 4-(5-(1-Benzyl-6,6-dimethyl-4,5,6,7-tetrahydro-1H-indazol-3-yl)-1,2,4-oxadiazol-3-yl)benzamide], the figure is 18 nM; as for `CCn1nc(-c2nc(-c3ccc4c(c3)CCC(NCC(=O)O)C4)no2)c2c1CC(C)(C)CC2` (stereo not drawn) [Example 68, 2-(6-(5-(1-Ethyl-6,6-dimethyl-4,5,6,7-tetrahydro-1H-indazol-3-yl)-1,2,4-oxadiazol-3-yl)-1,2,3,4-tetrahydronaphthalen-2-ylamino)ethanoic Acid], 1.9 nM.
For `CCn1nc(-c2nc(-c3cccc4[nH]ccc34)no2)c2c1CC(C)(C)CC2` [Example 187, 5-(1-ethyl-6,6-dimethyl-4,5,6,7-tetrahydro-1H-indazol-3-yl)-3-(1H-indol-4-yl)-1,2,4-oxadiazole], the EC50 is 10 nM.
Under `CCn1nc(-c2nc(-c3ccc(S(=O)(=O)NCCC(=O)O)c(Cl)c3)no2)c2c1CC(C)(C)CC2` [Example 97, 3-(2-Chloro-4-(5-(1-ethyl-6,6-dimethyl-4,5,6,7-tetrahydro-1H-indazol-3-yl)-1,2,4-oxadiazol-3-yl)phenylsulfonamido)propanoic Acid] stands 26 nM.
Turning to `Cc1cc(-c2nnc(-c3nn(C)c4c3CCC(C)(C)C4)s2)cc(C)c1OCCN` [Example 139, (2-{2,6-dimethyl-4-[5-(1,6,6-trimethyl-4,5,6,7-tetrahydro-1H-indazol-3-yl)-1,3,4-thiadiazol-2-yl]phenoxy}ethyl)amine], a half-maximal response (EC50) required 7.3 nM.
As for `CCn1nc(-c2nc(-c3ccc(CCC(=O)O)cc3C)no2)c2c1CC(C)(C)CC2` [Example 42, 3-(4-(5-(1-Ethyl-6,6-dimethyl-4,5,6,7-tetrahydro-1H-indazol-3-yl)-1,2,4-oxadiazol-3-yl)-3-methylphenyl)propanoic Acid], the figure is 16 nM; as for `CCn1nc(-c2nc(-c3ccncc3C)no2)c2c1CC(C)(C)CC2` [Example 36, 5-(1-Ethyl-6,6-dimethyl-4,5,6,7-tetrahydro-1H-indazol-3-yl)-3-(3-methylpyridin-4-yl)-1,2,4-oxadiazole], 48 nM; as for `CCn1nc(-c2nc(-c3ccc(CCNCC(=O)O)c(C(F)(F)F)c3)no2)c2c1CC(C)(C)CC2` [Example 162, N-{2-[4-[5-(1-ethyl-6,6-dimethyl-4,5,6,7-tetrahydro-1H-indazol-3-yl)-1,2,4-oxadiazol-3-yl]-2-(trifluoromethyl)phenyl]ethyl}glycine], 0.56 nM.
For `Cc1cc(-c2noc(-c3noc4c3CCC(C)(C)C4)n2)cc(C)c1CC(O)CO` (stereo not drawn) [Example 170, 3-{4-[5-(6,6-dimethyl-4,5,6,7-tetrahydro-1,2-benzisoxazol-3-yl)-1,2,4-oxadiazol-3-yl]-2,6-dimethylphenyl}propane-1,2-diol], the midpoint of the response, the EC50, lay at 8.3 nM.
Turning to `CCn1nc(-c2nc(-c3ccc(S(=O)(=O)NCCC(=O)O)cc3C)no2)c2c1CC(C)(C)CC2` [Example 117, N-({4-[5-(1-ethyl-6,6-dimethyl-4,5,6,7-tetrahydro-1H-indazol-3-yl)-1,2,4-oxadiazol-3-yl]-3-methylphenyl}sulfonyl)-beta-alanine], the EC50 was 11.7 nM.
As for `CCn1nc(-c2noc(-c3ccncc3)n2)c2c1CC(C)(C)CC2` [Example 99, 3-(1-Ethyl-6,6-dimethyl-4,5,6,7-tetrahydro-1H-indazol-3-yl)-5-(pyridin-4-yl)-1,2,4-oxadiazole], the figure is 146 nM; as for `Cc1cc(-c2noc(-c3nn(C)c4c3CCC(C)(C)C4)n2)cc(C)c1CCO` [Example 141, 2-{2,6-dimethyl-4-[5-(1,6,6-trimethyl-4,5,6,7-tetrahydro-1H-indazol-3-yl)-1,2,4-oxadiazol-3-yl]phenyl}ethanol], 4.6 nM; as for `CCn1nc(-c2nc(-c3ccc(N4CCN(CCC(=O)O)CC4)cc3)no2)c2c1CC(C)(C)CC2` [Example 8, 3-(4-(4-(5-(1-ethyl-6,6-dimethyl-4,5,6,7-tetrahydro-1H-indazol-3-yl)-1,2,4-oxadiazol-3-yl)phenyl)piperazin-1-yl)propanoic Acid], 17 nM.
Compound `CCn1nc(-c2nc(-c3ccc(S(N)(=O)=O)cc3)no2)c2c1CC(C)(C)CC2` [Example 5, 4-(5-(1-Ethyl-6,6-dimethyl-4,5,6,7-tetrahydro-1H-indazol-3-yl)-1,2,4-oxadiazol-3-yl)benzenesulfonamide] returned an EC50 of 40 nM.
`Cc1cc(-c2noc(-c3nn(C)c4c3CCC(C)(C)C4)n2)cc(C)c1CCN[C@@H](C)C(=O)O` [Example 146, N-(2-{2,6-dimethyl-4-[5-(1,6,6-trimethyl-4,5,6,7-tetrahydro-1H-indazol-3-yl)-1,2,4-oxadiazol-3-yl]phenyl}ethyl)-L-alanine] yielded a 50% effective concentration (EC50) of 1.4 nM.
Under `CCn1nc(-c2nc(-c3ccc(CCN)cc3C)no2)c2c1CC(C)(C)CC2` [Example 48, 2-(4-(5-(1-Ethyl-6,6-dimethyl-4,5,6,7-tetrahydro-1H-indazol-3-yl)-1,2,4-oxadiazol-3-yl)-3-methylphenyl)ethanamine] stands 8 nM.
